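Assay format: 96-well plates, 48-hour exposure. GI50 marks 50% less growth.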 The source made the active and inactive calls. Cut-off read from the data, not from the text of the source: active = GI50 up to about 1.1 µM and inactive = higher.
Key:
Test in all cases: DTP human tumour cell line panel, 48 h
A549 = tested on: A549
LOX IMVI = tested on: LOX IMVI
NCI-H460 = tested on: NCI-H460
SN12C = tested on: SN12C
OVCAR-5 = tested on: OVCAR-5
HT-29 = tested on: HT-29
UO-31 = tested on: UO-31
SF-295 = tested on: SF-295
786-0 = tested on: 786-0
HCT-15 = tested on: HCT-15
UACC-62 = tested on: UACC-62
SK-MEL-28 = tested on: SK-MEL-28
IGROV-1 = tested on: IGROV-1
SNB-78 = tested on: SNB-78
NCI-H522 = tested on: NCI-H522
SK-MEL-2 = tested on: SK-MEL-2
M14 = tested on: M14

SMILES | GI50 (A549) | GI50 (LOX IMVI) | GI50 (NCI-H460) | GI50 (SN12C) | GI50 (OVCAR-5) | GI50 (HT-29) | GI50 (UO-31) | GI50 (SF-295) | GI50 (786-0) | GI50 (HCT-15) [µM] | GI50 (UACC-62) | GI50 (SK-MEL-28) | GI50 (IGROV-1) | GI50 (SNB-78) | GI50 (NCI-H522) | GI50 (SK-MEL-2) | GI50 (M14)
CCN1C[C@]2(C)CC[C@H](OC)C34C1C([C@H](OC(C)=O)[C@@H]32)[C@@]1(OC)C[C@H](OC)[C@H]2C[C@@H]4[C@@H]1[C@H]2O | > 100 µM (inactive) | > 100 µM (inactive) | > 100 µM (inactive) | > 100 µM (inactive) | > 100 µM (inactive) | > 100 µM (inactive) | > 100 µM (inactive) | > 100 µM (inactive) | > 100 µM (inactive) | 87.5 | > 100 µM (inactive) | > 100 µM (inactive) | > 100 µM (inactive) | > 100 µM (inactive) | > 100 µM (inactive) | > 100 µM (inactive) | > 100 µM (inactive)
O=C(O)/C(Cl)=C(Cl)/C=N/NC(=O)c1cc2ccccc2cc1O | 9.18 µM (inactive) |  | 21 µM (inactive) | 38.5 µM (inactive) | 19.3 µM (inactive) | 38.6 µM (inactive) | 2.48 µM (inactive) | 11.9 µM (inactive) | 19.1 µM (inactive) | 19.4 | 3.6 µM (inactive) | 29.8 µM (inactive) | 15.5 µM (inactive) | 33.7 µM (inactive) | 22.1 µM (inactive) | 16 µM (inactive) | 14.5 µM (inactive)
COc1nc2c(c(O)c(C)c(=O)n2OC2OC(COC(C)=O)C(OC(C)=O)C(OC(C)=O)C2OC(C)=O)c(=O)n1C (stereo not given) | > 100 µM (inactive) | > 100 µM (inactive) | > 100 µM (inactive) | > 100 µM (inactive) | > 100 µM (inactive) | > 100 µM (inactive) | > 100 µM (inactive) | > 100 µM (inactive) | > 100 µM (inactive) | > 100 | > 100 µM (inactive) | > 100 µM (inactive) | > 100 µM (inactive) | > 100 µM (inactive) | 44.8 µM (inactive) | > 100 µM (inactive) | > 100 µM (inactive)
CC(=O)OC1CC2(C)OC(Cc3ccccc32)O1 (stereo not given) | > 100 µM (inactive) | > 100 µM (inactive) | > 100 µM (inactive) | > 100 µM (inactive) |  | > 100 µM (inactive) | > 100 µM (inactive) | > 100 µM (inactive) | > 100 µM (inactive) |  | > 100 µM (inactive) | > 100 µM (inactive) | > 100 µM (inactive) | > 100 µM (inactive) | > 100 µM (inactive) | > 100 µM (inactive) | > 100 µM (inactive)
COc1cc2c(c(OC)c1OC)-c1ccc(SC)c(=O)cc1[C@@H](NCc1ccc([N+](=O)[O-])cc1)CC2 | 0.00748 µM (active) | 0.00506 µM (active) | 0.00318 µM (active) | 0.00738 µM (active) | 0.0074 µM (active) | 0.00331 µM (active) | 0.406 µM (active) | 0.00364 µM (active) | 0.00624 µM (active) | 0.00487 | 0.00345 µM (active) | 0.00493 µM (active) | 0.0371 µM (active) | 0.00904 µM (active) | 0.00313 µM (active) | 0.0113 µM (active) | 0.00404 µM (active)
C/C=C/C#CC#C/C=C/C=C/C(O)CCO (stereo not given) | > 23.1 µM (inactive) | > 23.1 µM (inactive) | > 23.1 µM (inactive) | > 23.1 µM (inactive) | > 23.1 µM (inactive) | > 23.1 µM (inactive) | > 23.1 µM (inactive) | > 18.7 µM (inactive) | > 23.1 µM (inactive) | > 23.1 | > 23.1 µM (inactive) | > 23.1 µM (inactive) | > 23.1 µM (inactive) | > 23.1 µM (inactive) | > 23.1 µM (inactive) | > 23.1 µM (inactive) | > 23.1 µM (inactive)
Cc1ccccc1N(CCC#N)C1=NN(C(=O)CC(=O)Nc2ccccc2)C(c2ccccc2)C1 (stereo not given) | > 100 µM (inactive) |  | > 100 µM (inactive) | > 100 µM (inactive) | > 100 µM (inactive) | > 100 µM (inactive) | > 100 µM (inactive) | > 100 µM (inactive) | > 100 µM (inactive) | > 100 | > 100 µM (inactive) | > 100 µM (inactive) | > 100 µM (inactive) | 67.9 µM (inactive) | > 100 µM (inactive) | > 100 µM (inactive) | > 100 µM (inactive)
CCc1ccccc1NC(=O)C1=C(C)NC(C)=C(C(=O)Nc2c(CC)cccc2CC)C1c1ccc2c(c1)OCO2 (stereo not given) | 17.6 µM (inactive) | 16.9 µM (inactive) | 16.6 µM (inactive) | 26 µM (inactive) | 18.2 µM (inactive) | 18 µM (inactive) | 16.2 µM (inactive) | 20.3 µM (inactive) | 18.3 µM (inactive) |  |  | 18.1 µM (inactive) | 25.4 µM (inactive) | 26.9 µM (inactive) | 16.2 µM (inactive) | 15.2 µM (inactive) | 16.4 µM (inactive)
Cc1ccc(/C=C2\CCCC(C(NO)c3ccc(C)cc3)C2=NO)cc1 (stereo not given) | 36.1 µM (inactive) |  | 24.7 µM (inactive) | 20.7 µM (inactive) |  | 19.5 µM (inactive) | 57.4 µM (inactive) |  | 58.3 µM (inactive) | 36.3 | 89.5 µM (inactive) | 16.1 µM (inactive) | > 100 µM (inactive) | 60 µM (inactive) | 28.5 µM (inactive) | 69.2 µM (inactive) | 26.4 µM (inactive)
CN1NC2(CCCCC2)ON=C1c1ccccc1 | > 100 µM (inactive) | > 100 µM (inactive) | > 100 µM (inactive) | > 100 µM (inactive) | > 100 µM (inactive) | > 100 µM (inactive) |  | > 100 µM (inactive) | > 100 µM (inactive) | > 100 | > 100 µM (inactive) | > 100 µM (inactive) | > 100 µM (inactive) | > 100 µM (inactive) | > 100 µM (inactive) |  | > 100 µM (inactive)
Cc1ccccc1C1OC(=O)c2ccccc21 (stereo not given) | > 100 µM (inactive) | > 100 µM (inactive) | > 100 µM (inactive) | > 100 µM (inactive) | > 100 µM (inactive) | > 100 µM (inactive) | > 100 µM (inactive) |  | > 100 µM (inactive) | > 100 | 56.1 µM (inactive) | > 100 µM (inactive) | > 100 µM (inactive) | > 100 µM (inactive) | > 100 µM (inactive) | > 100 µM (inactive) | > 100 µM (inactive)
CSc1nnc(C(C#N)C#N)nn1 | > 100 µM (inactive) | > 100 µM (inactive) | > 100 µM (inactive) | > 100 µM (inactive) | > 100 µM (inactive) | > 100 µM (inactive) | > 100 µM (inactive) | > 100 µM (inactive) | > 100 µM (inactive) | > 100 | > 100 µM (inactive) |  | > 100 µM (inactive) | > 100 µM (inactive) | > 100 µM (inactive) |  | > 100 µM (inactive)
NNC(=O)N/N=C1\C(=O)N(c2ccc(Cl)c(Cl)c2)C(=O)C(=O)C1c1nc2ccccc2s1 (stereo not given) | > 100 µM (inactive) |  | > 100 µM (inactive) | > 100 µM (inactive) |  | > 100 µM (inactive) | > 100 µM (inactive) | > 100 µM (inactive) | > 100 µM (inactive) | > 100 | > 100 µM (inactive) | > 100 µM (inactive) | > 100 µM (inactive) | > 100 µM (inactive) | > 100 µM (inactive) | > 100 µM (inactive) | > 100 µM (inactive)
